Test results as given in patent US20150224169A1, “COMPOUNDS AND METHODS FOR SELECTIVELY TARGETING CANCER STEM CELLS” (McMaster University, priority 2012, published 2015).
Like-named read-outs stand apart in the source and are kept apart here.

Assays:
[1] = test system: lineage-depleted human umbilical cord blood cells; test: Methylcellulose assay, CFU formation; format: cell-based; conditions: for Normal hematopoietic progenitor/stem cell proliferation activity (CFU-forming potential of cord blood cells): 0.1 μM, treated one day, 14 days in methylcellulose
Excerpt: (§1) Methylcellulose assays provide a functional and quantitative measure of hematopoietic progenitor/stem cell proliferation/clonogenic potential based on the formation of colony-forming units (CFUs) in vitro. Hematopoietic progenitor/stem cells from lineage-depleted human umbilical cord blood are capable of proliferation and differentiation to all blood lineages. AML blast cells from leukemia patients are myeloid progenitor cells blocked in differentiation that are sustained by a self-renewing leukemic stem cell(s). In this experiment, lineage-depleted cord blood cells and AML samples were each treated with Nystatin for one day and then cultured in methylcellulose for 14 days after which the numbers of CFUs were determined.
(§2) Cord blood and AML patient cells were seeded in 96-well plates at 500 cells and 25000 cells respectively in 50 μL medium containing StemSpan™ (Stemcell Technologies), 200 ng/mL stem cell factor (SCF, R&D Systems), 200 ng/mL Flt-3 (R&D Systems) and 40 ng/mL thrombopoietin (TPO, Stemcell Technologies). Then, 50 μL StemSpan containing 0.2 μM, 2 μM or 20 μM compounds was added to each well containing the cells. The cells were incubated for 24 hours at 37° C., after which the compound medium was removed from the wells and replaced with 50 μL medium containing StemSpan, 100 ng/mL SCF, 100 ng/mL Flt-3 and 20 ng/mL TPO. The cells from each well were mixed with 500 μL Methocult™ (Stemcell Technologies, H4434), and seeded into 12-well plates. The samples were imaged and scored after 14 days of incubation at 37° C.

AML patient cells = format: cell-based, human; conditions: for Ability of AML cells to form CFUs / Selectivity ratio of total CFUs from cord blood cells versus blast CFUs from AML samples: 0.1 μM; for Ability of AML cells to form CFUs / CFU forming potential of AML cells: treated one day, 14 days in methylcellulose; for Selectivity ratio of total CFUs from cord blood cells versus blast CFUs from AML samples: normalized to 0.1% DMSO control, ratio greater than 1 = selective for AML
Excerpt: as §1, §2

[2] = test system: variant neoplastic stem cells (v1O4) relative to normal stem cells (H9); test: Selective-activity dose-response screening assay (cell counts, v1O4 versus H9); format: cell-based, human; conditions: dose-response curves FIG. 3B
Procedure: Briefly, variant neoplastic stem cells (v1O4) cells were seeded into Matrigel-coated 96 well plates (5000 cells/well) containing mouse embryonic fibroblast conditioned media (MEFCM) supplemented with 8 ng/mL bFGF, and treated for 72 hours with compounds dissolved in DMSO. The final concentration of each compound used in treatment was either 10 μM or 1 μM (n=3). Control wells were treated with 0.1% DMSO (low control) or 100 ng/ml BMP4 (high control to induce LOP). At the end of 72 hours, cells were fixed, stained with Hoechst and imaged by automated microscopy. GFP intensity and Hoechst signal were quantified as measures of LOP and cell count, respectively, and compounds with a Z-score of more than 3 standard deviations from the mean for reduced cell count and LOP were chosen as hits.
In the second stage also shown in FIG. 1, 8- or 10-point dilutions for each compound were tested on variant neoplastic stem cells (v1O4) and normal stem cells (H9 cells) cells to generate dose-response curves. […] Dose response data were fit with a 4-parameter Hill equation to derive EC50, slopes, min and max values using IDBS ActivityBase software. The EC50 values were then used to calculate a selective-activity potency ratio (H9 EC50/v1O4 EC50).

[3] = test system: variant neoplastic stem cells; conditions: Sachlos et al., 2012; cited from earlier work
[4] = higher concentrations (above 0.1 μM)

SMILES | Normal hematopoietic progenitor/stem cell proliferation activity (CFU-forming potential of cord blood cells) [1] | Ability of AML cells to form CFUs (AML patient cells) | Selectivity ratio of total CFUs from cord blood cells versus blast CFUs from AML samples (AML patient cells) | Selectivity for cancer stem cells based on a single 10 μM concentration point [2] | other results
C[C@@H]1[C@H](O)[C@@H](C)/C=C/C=C/CC/C=C/C=C/C=C/C=C/C(O[C@H]2O[C@H](C)[C@@H](O)[C@H](N)[C@@H]2O)CC2O[C@](O)(CC(O)C(O)CCC(O)CC(O)CC(O)CC(=O)O[C@H]1C)CC(O)C2C(=O)O (some centres unmarked) [Nystatin] | little effect | reduced the ability of AML cells to form CFUs | 1.5 | – | CFU forming potential of AML cells (AML patient cells; 1 μM): no effect; CFU forming potential of AML cells (AML patient cells; 10 μM): no effect
Nc1nc(O)c2[nH]nnc2n1 [Azaguanine-8] | – | – | – | would have not have been considered selective | –
Nc1ccn([C@@H]2O[C@H](CO)[C@@H](O)[C@@H]2O)c(=O)n1 [AraC, cytarabine] | also affected the CFU-forming potential of cord blood cells | reduced the ability of AML samples to form CFUs | no statistically significant difference | – | Toxicity to cord blood cells in methylcellulose assay [1, 4]: toxic; Toxicity to AML cells in methylcellulose assay (AML patient cells; [4]): toxic
CSc1ccc2c(c1)N(CCC1CCCCN1C)c1ccccc1S2 (centres unmarked) [Thioridazine] | – | – | – | – | Action on variant neoplastic stem cells [3]: inducing differentiation through a loss of pluripotency
CS(=O)(=O)O.Cn1cc(C2=C(c3cn(CCCSC(=N)N)c4ccccc34)C(=O)NC2=O)c2ccccc21 [Ro 31-8220 mesylate] | – | – | – | would have not have been considered selective | –
CCCCc1ccc2[nH]c(NC(=O)OC)nc2c1 [Parbendazole] | – | – | – | would have not have been considered selective | –
